The data set in a line: Human HepG2 cell viability assay in 384 well format. The format is toxicity, cell-based. Also on record: dose 125 nL, time 70.5 hour; concentration not given beside the values. The following applies: HepG2 cells, read-out: Inhibition.
Take `CSc1ccc(-n2nnc(C(=O)O)c2-c2ccccn2)cc1`: the cytotoxicity at 70.5 h is 11.2%.
The result for `CC(C)c1ccc(-n2nnc(C(=O)O)c2-c2ccccn2)cc1` reads -24.1%; that for `Cc1ccc(S(=O)(=O)NC2=NCN(CCc3cccs3)CN2)cc1`, -14.3%; that for `O=S(=O)(NC1=NCN(CCc2cccs2)CN1)c1ccc(Br)cc1`, -18.9%.
`CC(C)Cn1c(=O)nc2n1C(=O)N(c1ccc(F)cc1)C2`: the cytotoxicity at 70.5 h is -25.8%.
As for `O=C1CC(c2ccc(C(F)(F)F)cc2)c2c(n3ccsc3nc2=O)N1` (centres undefined), the figure is -22.1%; as for `CC(C)c1nnc2ccc(N3CCC(C(=O)O)CC3)nn12`, -25.9%.
As for `CNc1oc(-c2ccc(OC)c(S(=O)(=O)N3CCCC3)c2)nc1C#N`, the figure is -21.8%; as for `NC(=O)C1CCN(C(=O)CCn2ccc3ccc(F)cc32)CC1`, -6.99%.
As for `Cc1c(C)n(-c2ccccn2)c2nc3c(c(N)c12)CCCCC3`, the figure is -10.8%; as for `O=c1ccc(-c2cccs2)nn1CN1CCOC(c2ccccc2)C1` (centres undefined), -21.3%.
`O=c1ccc(-c2cccs2)nn1CN1CCN(c2ccccn2)CC1`: the cytotoxicity at 70.5 h is -23.6%.
Take `O=C1CC(c2ccc(Cl)c(Cl)c2)c2c(n3ccsc3nc2=O)N1` (centres undefined): the cytotoxicity at 70.5 h stood at 10%.
As for `CC(C)n1c(=O)nc2n1C(=O)N(c1ccc(Cl)cc1)C2`, the figure is -21.8%; as for `Cc1oc(-c2nc(C#N)c(NC(C)C)o2)cc1S(=O)(=O)N1CCCC1`, -25.3%.
Consider `O=C(c1cnc2ccc(F)cc2c1NCc1ccco1)N1CCCC1`, for which the cytotoxicity at 70.5 h is 28.7%.
As for `CCCN(CCC)c1ncc(S(=O)(=O)c2ccccc2)c(N)n1`, the figure is -15.1%.
The result for `CCN(CC)c1ncc(S(=O)(=O)c2cccc(C)c2)c(N)n1` reads 25.6%; that for `Cc1ccc(-c2cc(C(=O)O)sn2)cc1`, -15.1%.
As for `Cc1c(C(=O)O)cnn1-c1ccc(-c2nc(C(C)(C)C)no2)cn1`, the figure is -8.45%; as for `Cc1cccc(Cn2c(=O)[nH]c3csnc3c2=O)c1`, -4.48%; as for `CCc1c(C)n(CCC#N)c2nc3ccccc3n2c1=O`, -9.18%.
`COc1ccc(-c2nnsc2C(=O)N2CCOCC2)cc1`: the cytotoxicity at 70.5 h was -11.2%.
As for `CC1(C)CC(=O)c2cnc3nc(N4CCOCC4)nc(O)c3c2C1`, the figure is -1.04%.
As for `COc1ccccc1C1CC(=O)Nc2c1c(=O)[nH]n2C1CCCC1` (centres undefined), the figure is -11.5%; as for `CCOC(=O)CC(c1ccc(OC)c(OC)c1)c1c(O)n[nH]c1C` (centres undefined), -15.2%; as for `COc1ccccc1C1SCC(=O)Nc2c1c(=O)[nH]n2C1CCCCC1` (centres undefined), 20.9%.
The result for `CC(C)(C)c1csc(CCNC(=O)C(c2ccccc2)n2cnnn2)n1` (centres undefined) reads -0.915%; that for `COc1cccc(-n2nc(C(C)=O)c(C(C)=O)c2C)c1`, -15.4%; that for `Cc1cs/c(=N\C(=O)Cn2nc(N3CCC(C)CC3)ccc2=O)[nH]1`, -9.83%.
Turning to `CNc1cncc(C2CCN(C(=O)c3coc(C)n3)CC2)n1`, the cytotoxicity at 70.5 h is 24.2%.
Take `CCC1CNCc2cc3c(OC)ccc(OC)c3nc2O1` (centres undefined): the cytotoxicity at 70.5 h amounted to 12.3%.
The result for `Cc1cc(-c2ccc(=O)n(CCNC(=O)C3CC3)n2)c(C)o1` reads 0.992%; that for `CN1CCN([C@@H]2CN(C(=O)c3cc4cccc(F)c4[nH]3)C[C@H]2O)CC1`, -1.94%.
As for `COCC(=O)N1Cc2nc3c(C)c(-c4cccs4)nn3c(O)c2C1`, the figure is -0.72%; as for `COc1ccc(CNCC(C)Oc2ccccn2)cc1Cl` (centres undefined), -8.86%.
As for `Cc1ccc(CNCC(C)Oc2ccccn2)cc1` (centres undefined), the figure is -33.7%; as for `CC(CNCc1ccc(Br)cc1)Oc1ccccn1` (centres undefined), 2.54%; as for `CCC(=O)N1C[C@@H](C(=O)NC)[C@H](c2ccnc(N3CCCC3)n2)C1`, -3.94%.

For the origin of these results see ChEMBL document CHEMBL3507680, “University of Dundee, Gates Library screen for HepG2 cell viability”.
